The values that follow come from paper PMC4882560, “Polyketides from the Mangrove-Derived Endophytic Fungus Nectria sp. HN001 and Their α-Glucosidase Inhibitory Activity” (Marine Drugs, 2016).

This assay has as its target α-Glucosidase from Saccharomyces cerevisiae. Nature of the assay: In vitro α-glucosidase inhibitory activity (UV absorbance at 405 nm, p-nitrophenyl glycoside substrate). The class given is biochemical. The settings on record: for IC50: mean ± SD from three parallel measurements, phosphate buffer pH 7.0, 37 °C, absorbance at 405 nm, read-out: IC50, inhibitory effects against α-glucosidase; for α-glucosidase inhibitory activity (result in words): compared to positive control acarbose. On the procedure:
Optical rotations were measured on a Bellingham-Stanley ADP 440+ polarimeter at 25 °C. IR data were recorded on a Nicolet 5DX-FTIR (Thermo Fisher Scientific, Inc., Hudson, NH, USA), in KBr discs. UV data were recorded on a Shimadzu UV-240 spectrophotometer (Shimadzu, Kyoto, Japan). The ^1H NMR (500 MHz), ^13C NMR (125 MHz), and 2D NMR spectra were obtained on a Bruker AVANCE-500 (Bruker BioSpin Corporation, Billerica, MA, USA) using TMS as an internal reference. HRESIMS were acquired on a Thermofisher LTQ Orbitrp Elite LC-MS spectrometer (Thermo Fisher Scientific, Inc., Hudson, NH, USA), and the ESIMS data were measured on a Micro Mass Q-TOF spectrometer (Waters Corporation, Milford, MA, USA). TLC analysis was carried out on silica gel plates (Marine Chemical Ltd., Qingdao, China). RP-C18 silica gel (Fuji, 40–75 μm, Fuji Silysia Chemical Ltd., Kasugai, Japan), Silica gel (200–300 mesh, Marine Chemical Ltd., Qingdao, China), High silica gel (H, Marine Chemical Ltd., Qingdao, China), and Sephadex LH-20 (GE Healthcare Bio-Sciences AB, Stockholm, Sweden) were used for column chromatography (CC).
An assay of α-glucosidase inhibitory activity was performed using a reported method, with slight modifications. All the assays were performed using 0.01 M KH2PO4-K2HPO4 buffers, pH 7.0, and a Bio-Rad iMark microplate reader (Bio-Rad Laboratories, Inc., Kyoto, Japan). Enzyme solution was prepared to give 2.0 Units/mL in 2 mL aliquots. The assay medium contained phosphate buffer, pH 7.0 (130 μL), 10 μL of enzyme solution, 20 μL of DMSO or inhibitor (dissolved in DMSO), and 40 μL of substrate (p-nitrophenyl glycoside, 3 mg/mL). The substrate was added to the assay medium containing enzyme and buffer with inhibitor added after 15 min of incubation time at 37 °C. The activity was determined by measuring the increase in absorbance at 405 nm for a 1 min interval. Calculations were performed according to the equation: η (%) = [(B − S)/B] × 100%
(B stands for the assay medium with DMSO; S stands for the assay medium with inhibitor). All measurements were done in triplicate from two independent experiments. The reported IC50 was the average value of two independent experiments.

Usually IC50 stands for the midpoint of a concentration-inhibition curve. Turning to `CC(/C=C/C(=O)O)=C\C=C\C(C)=C\C(C)=C\C(=O)O` [Compound 1, 2E, 4E, 6E, 8E, 10E-3,5,9-trimethyldodeca-2,4,6,8, 10-pentaenedioic acid], the IC50 was 121.8 ± 0.4 µM.

As for `COC(=O)/C=C/C(C)=C/C=C/C(C)=C/C(C)=C/C(=O)O` [Compound 2, 2E, 4E, 6E, 8E, 10E-12-methoxy-3,5,9-trimethyl-12-oxododeca-2,4,6,8, 10-pentaenoic acid], the “α-glucosidase inhibitory activity (result in words)” value is listed as “significant inhibitory activity” and the IC50 is 23.5 ± 0.3 µM. The corresponding values for `COC(=O)/C=C/C(C)=C/C=C/C(C)=C\C(C)=C\C(=O)O` [Compound 3, 2E, 4Z, 6E, 8E, 10E-12-methoxy-3,5,9-trimethyl-12-oxododeca-2,4,6,8, 10-pentaenoic acid] are “significant inhibitory activity” and 42.3 ± 0.2 µM.

As for `C[C@H](O)C[C@@H](O)Cc1cc2cc(O)cc(O)c2c(=O)o1` [Compound 4, 12-epicitreoisocoumarinol], the IC50 is 343.7 ± 1 µM. Same read-out and setting: next, `C[C@@H](O)C[C@@H](O)Cc1cc2cc(O)cc(O)c2c(=O)o1` [Compound 5, citreoisocoumarinol]: 392.5 ± 1.7 µM. On the same count and under the same terms, next, `CC(=O)C[C@@H](O)Cc1cc2cc(O)cc(O)c2c(=O)o1` [Compound 6, citreoisocoumarin]: 538.7 ± 4.3 µM. Turning to `Cc1cc(=O)cc(Cc2cc(O)cc(O)c2)o1` [Compound 7, macrocarpon C], the “α-glucosidase inhibitory activity (result in words)” value was “did not display inhibitory activity” and the IC50 was above 900 µM.
